Laboratory results: the kinase profiling compilation of Christmann-Franck et al. (2016)
“And” between values parts separate entries of the source, which are not always exact repeats. Equal values may be shown once.

What was measured:
Experiment in all cases: radiometric filter-binding kinase assay, Kinase HotSpot
Conditions in all cases: compound 0.5 µM; ATP 10 µM
MET (human) = MET (human) (UniProt P08581)
WEE1 (human) = WEE1 (human) (UniProt P30291)
CSNK2A1 (human) = CSNK2A1 (human) (UniProt P68400)
CAMK1D (human) = CAMK1D (human) (UniProt Q8IU85)
MAPK3 (human) = MAPK3 (human) (UniProt P27361)
PTK6 (human) = PTK6 (human) (UniProt Q13882)
PHKG1 (human) = PHKG1 (human) (UniProt Q16816)
PKN2 (human) = PKN2 (human) (UniProt Q16513)
CDK5 CDK5R1 p35 (human) = CDK5 CDK5R1 p35 (human) (UniProt Q00535+Q15078)
CDC42BPA (human) = CDC42BPA (human) (UniProt Q5VT25)
NTRK1 (human) = NTRK1 (human) (UniProt P04629)
TSSK2 (human) = TSSK2 (human) (UniProt Q96PF2)
HIPK2 (human) = HIPK2 (human) (UniProt Q9H2X6)
PRKD2 (human) = PRKD2 (human) (UniProt Q9BZL6)
FGFR4 (human) = FGFR4 (human) (UniProt P22455)
DAPK1 (human) = DAPK1 (human) (UniProt P53355)
SRC (human) = SRC (human) (UniProt P12931)
NEK3 (human) = NEK3 (human) (UniProt P51956)
SGK3 (human) = SGK3 (human) (UniProt Q96BR1)
VRK1 (human) = VRK1 (human) (UniProt Q99986)
MAP2K1 (human) = MAP2K1 (human) (UniProt Q02750)
PLK3 (human) = PLK3 (human) (UniProt Q9H4B4)
EPHA2 (human) = EPHA2 (human) (UniProt P29317)
NEK2 (human) = NEK2 (human) (UniProt P51955)
MUSK (human) = MUSK (human) (UniProt O15146)
WNK3 (human) = WNK3 (human) (UniProt Q9BYP7)
PASK (human) = PASK (human) (UniProt Q96RG2)
PAK6 (human) = PAK6 (human) (UniProt Q9NQU5)
TGFBR2 (human) = TGFBR2 (human) (UniProt P37173)
ULK1 (human) = ULK1 (human) (UniProt O75385)
SRPK2 (human) = SRPK2 (human) (UniProt P78362)
TBK1 (human) = TBK1 (human) (UniProt Q9UHD2)
GRK7 (human) = GRK7 (human) (UniProt Q8WTQ7)
DYRK4 (human) = DYRK4 (human) (UniProt Q9NR20)
SIK2 (human) = SIK2 (human) (UniProt Q9H0K1)
CAMKK2 (human) = CAMKK2 (human) (UniProt Q96RR4)
PRKCE (human) = PRKCE (human) (UniProt Q02156)
RPS6KA3 KD1 KD2 (human) = RPS6KA3 KD1 KD2 (human) (UniProt P51812)
CAMK1G (human) = CAMK1G (human) (UniProt Q96NX5)
STK10 (human) = STK10 (human) (UniProt O94804)
LYN (human) = LYN (human) (UniProt P07948)
MAPK12 (human) = MAPK12 (human) (UniProt P53778)

TSSK2 (human), sequence (Q96PF2 whole entry, looked up): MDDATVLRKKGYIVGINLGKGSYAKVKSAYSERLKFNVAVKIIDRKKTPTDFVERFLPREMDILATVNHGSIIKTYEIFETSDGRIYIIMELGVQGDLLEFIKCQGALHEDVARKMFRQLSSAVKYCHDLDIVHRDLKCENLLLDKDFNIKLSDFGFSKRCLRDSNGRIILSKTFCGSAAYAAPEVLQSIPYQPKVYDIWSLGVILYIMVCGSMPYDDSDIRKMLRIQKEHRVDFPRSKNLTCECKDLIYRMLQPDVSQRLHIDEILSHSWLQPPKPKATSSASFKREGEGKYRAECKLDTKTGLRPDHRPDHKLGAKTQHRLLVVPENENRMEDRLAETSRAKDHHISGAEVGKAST
PTK6 (human), sequence (Q13882 whole entry, looked up): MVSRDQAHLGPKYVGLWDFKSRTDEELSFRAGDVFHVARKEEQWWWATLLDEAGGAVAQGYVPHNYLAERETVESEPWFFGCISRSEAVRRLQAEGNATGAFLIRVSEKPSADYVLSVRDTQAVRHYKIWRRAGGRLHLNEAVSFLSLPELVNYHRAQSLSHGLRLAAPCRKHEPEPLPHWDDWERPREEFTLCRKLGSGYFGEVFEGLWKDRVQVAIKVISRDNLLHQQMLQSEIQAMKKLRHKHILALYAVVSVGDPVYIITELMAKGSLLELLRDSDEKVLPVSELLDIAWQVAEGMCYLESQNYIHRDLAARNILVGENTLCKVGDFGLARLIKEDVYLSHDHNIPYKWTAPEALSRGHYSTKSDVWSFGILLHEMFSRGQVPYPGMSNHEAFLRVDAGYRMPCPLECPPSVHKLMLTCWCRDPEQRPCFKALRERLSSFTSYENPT
FGFR4 (human), sequence (P22455 whole entry, looked up): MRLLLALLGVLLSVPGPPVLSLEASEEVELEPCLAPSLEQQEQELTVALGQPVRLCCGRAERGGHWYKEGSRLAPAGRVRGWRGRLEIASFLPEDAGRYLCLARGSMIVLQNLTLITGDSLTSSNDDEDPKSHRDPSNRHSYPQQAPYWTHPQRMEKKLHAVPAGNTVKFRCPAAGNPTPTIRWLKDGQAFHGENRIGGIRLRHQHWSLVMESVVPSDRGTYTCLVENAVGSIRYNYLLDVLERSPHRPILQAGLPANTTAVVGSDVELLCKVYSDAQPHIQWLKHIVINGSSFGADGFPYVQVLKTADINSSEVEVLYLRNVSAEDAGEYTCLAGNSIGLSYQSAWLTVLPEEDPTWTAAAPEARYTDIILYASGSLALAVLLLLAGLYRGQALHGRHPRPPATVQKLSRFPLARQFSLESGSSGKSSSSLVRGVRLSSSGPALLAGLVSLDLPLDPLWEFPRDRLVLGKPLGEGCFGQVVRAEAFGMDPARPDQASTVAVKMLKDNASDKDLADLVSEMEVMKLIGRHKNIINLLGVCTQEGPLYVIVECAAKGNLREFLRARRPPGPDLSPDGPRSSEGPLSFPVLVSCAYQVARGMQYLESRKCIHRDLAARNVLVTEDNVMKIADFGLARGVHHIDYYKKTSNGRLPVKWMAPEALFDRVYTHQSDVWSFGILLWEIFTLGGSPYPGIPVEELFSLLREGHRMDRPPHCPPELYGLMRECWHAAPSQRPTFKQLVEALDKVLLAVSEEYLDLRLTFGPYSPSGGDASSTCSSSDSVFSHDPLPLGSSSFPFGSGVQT
CAMK1D (human), sequence (Q8IU85 whole entry, looked up): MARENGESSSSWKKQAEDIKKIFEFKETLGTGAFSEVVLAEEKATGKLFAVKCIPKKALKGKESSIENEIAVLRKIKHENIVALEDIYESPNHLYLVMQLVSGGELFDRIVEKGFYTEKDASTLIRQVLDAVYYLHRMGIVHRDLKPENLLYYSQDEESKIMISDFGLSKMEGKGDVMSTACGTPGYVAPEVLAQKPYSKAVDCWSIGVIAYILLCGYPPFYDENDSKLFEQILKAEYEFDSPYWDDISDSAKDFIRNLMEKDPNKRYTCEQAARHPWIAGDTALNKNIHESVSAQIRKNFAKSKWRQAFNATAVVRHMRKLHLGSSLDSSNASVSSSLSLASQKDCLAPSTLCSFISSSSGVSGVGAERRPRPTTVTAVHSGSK
GRK7 (human), sequence (Q8WTQ7 whole entry, looked up): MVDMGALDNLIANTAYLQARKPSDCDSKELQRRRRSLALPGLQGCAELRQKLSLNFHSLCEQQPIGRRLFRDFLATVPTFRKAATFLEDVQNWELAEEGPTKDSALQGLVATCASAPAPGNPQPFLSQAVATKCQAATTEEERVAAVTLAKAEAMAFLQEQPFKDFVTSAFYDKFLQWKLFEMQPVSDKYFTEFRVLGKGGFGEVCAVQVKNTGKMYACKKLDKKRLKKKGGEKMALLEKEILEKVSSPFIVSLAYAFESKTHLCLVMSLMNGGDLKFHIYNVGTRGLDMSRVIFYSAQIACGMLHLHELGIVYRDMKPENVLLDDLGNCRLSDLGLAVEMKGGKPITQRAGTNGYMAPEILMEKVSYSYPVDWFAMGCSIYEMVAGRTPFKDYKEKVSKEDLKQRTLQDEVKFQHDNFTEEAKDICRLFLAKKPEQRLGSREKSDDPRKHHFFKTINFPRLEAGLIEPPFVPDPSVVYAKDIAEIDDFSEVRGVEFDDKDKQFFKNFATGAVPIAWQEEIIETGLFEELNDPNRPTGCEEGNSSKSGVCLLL
LYN (human), sequence (P07948 whole entry, looked up): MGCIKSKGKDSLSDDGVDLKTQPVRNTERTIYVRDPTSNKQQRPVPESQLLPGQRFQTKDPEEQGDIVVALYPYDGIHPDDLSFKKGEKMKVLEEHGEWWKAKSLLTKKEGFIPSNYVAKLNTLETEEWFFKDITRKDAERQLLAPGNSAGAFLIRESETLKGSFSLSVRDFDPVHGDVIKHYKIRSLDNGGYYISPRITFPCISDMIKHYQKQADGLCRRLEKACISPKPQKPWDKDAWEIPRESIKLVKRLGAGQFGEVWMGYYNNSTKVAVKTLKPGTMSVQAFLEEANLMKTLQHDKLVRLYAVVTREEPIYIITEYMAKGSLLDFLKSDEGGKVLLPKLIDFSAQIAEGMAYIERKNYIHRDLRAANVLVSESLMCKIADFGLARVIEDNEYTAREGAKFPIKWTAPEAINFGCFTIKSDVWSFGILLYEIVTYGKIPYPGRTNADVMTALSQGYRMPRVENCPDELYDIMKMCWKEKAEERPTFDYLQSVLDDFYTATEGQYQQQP
SGK3 (human), sequence (Q96BR1 whole entry, looked up): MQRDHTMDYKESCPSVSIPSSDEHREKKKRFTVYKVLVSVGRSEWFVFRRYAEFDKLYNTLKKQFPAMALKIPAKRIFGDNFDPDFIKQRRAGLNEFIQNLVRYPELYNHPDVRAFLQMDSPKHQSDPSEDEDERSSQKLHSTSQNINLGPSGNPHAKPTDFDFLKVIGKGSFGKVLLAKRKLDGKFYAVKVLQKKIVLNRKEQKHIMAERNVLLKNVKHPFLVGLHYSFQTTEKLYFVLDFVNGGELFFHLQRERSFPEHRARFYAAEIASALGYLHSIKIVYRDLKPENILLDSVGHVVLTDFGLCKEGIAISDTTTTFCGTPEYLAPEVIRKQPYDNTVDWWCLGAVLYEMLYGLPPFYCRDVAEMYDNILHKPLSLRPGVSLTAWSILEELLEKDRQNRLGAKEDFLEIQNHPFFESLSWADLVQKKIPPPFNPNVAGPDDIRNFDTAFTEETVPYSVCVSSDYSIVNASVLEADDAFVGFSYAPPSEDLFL
SRC (human), sequence (P12931 whole entry, looked up): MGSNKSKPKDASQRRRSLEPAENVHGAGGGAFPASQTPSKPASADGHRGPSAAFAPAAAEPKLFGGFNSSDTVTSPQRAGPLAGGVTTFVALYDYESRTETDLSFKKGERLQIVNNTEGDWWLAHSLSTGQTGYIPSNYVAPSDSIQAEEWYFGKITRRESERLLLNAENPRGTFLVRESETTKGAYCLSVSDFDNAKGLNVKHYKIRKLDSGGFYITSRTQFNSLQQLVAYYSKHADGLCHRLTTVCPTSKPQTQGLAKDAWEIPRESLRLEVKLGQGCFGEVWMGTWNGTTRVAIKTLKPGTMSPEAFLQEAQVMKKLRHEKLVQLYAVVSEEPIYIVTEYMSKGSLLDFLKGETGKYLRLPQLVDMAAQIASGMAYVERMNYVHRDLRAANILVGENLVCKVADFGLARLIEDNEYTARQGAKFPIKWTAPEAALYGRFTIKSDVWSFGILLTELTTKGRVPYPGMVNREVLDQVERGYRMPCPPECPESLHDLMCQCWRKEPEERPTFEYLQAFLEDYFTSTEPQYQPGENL
WEE1 (human), sequence (P30291 whole entry, looked up): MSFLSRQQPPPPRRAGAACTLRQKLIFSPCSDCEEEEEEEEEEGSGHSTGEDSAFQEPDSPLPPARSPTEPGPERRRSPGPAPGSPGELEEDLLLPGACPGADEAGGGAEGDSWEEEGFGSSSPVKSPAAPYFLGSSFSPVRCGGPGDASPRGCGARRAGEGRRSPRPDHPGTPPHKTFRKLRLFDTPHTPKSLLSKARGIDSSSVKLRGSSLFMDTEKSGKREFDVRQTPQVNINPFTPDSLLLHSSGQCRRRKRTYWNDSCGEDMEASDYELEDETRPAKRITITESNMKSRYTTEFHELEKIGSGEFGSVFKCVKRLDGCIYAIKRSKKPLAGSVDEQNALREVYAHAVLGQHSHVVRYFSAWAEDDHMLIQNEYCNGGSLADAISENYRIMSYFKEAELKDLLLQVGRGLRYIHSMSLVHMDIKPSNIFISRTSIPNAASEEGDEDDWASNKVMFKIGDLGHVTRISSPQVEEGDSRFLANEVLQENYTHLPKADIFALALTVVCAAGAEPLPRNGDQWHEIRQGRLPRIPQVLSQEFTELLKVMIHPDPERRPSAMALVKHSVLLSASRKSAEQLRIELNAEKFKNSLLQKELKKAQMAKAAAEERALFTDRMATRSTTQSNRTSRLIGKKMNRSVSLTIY

## CC(C)[C@H](CO)Nc1nc(Nc2cc(N)cc(Cl)c2)c2ncn(C(C)C)c2n1
MET (human)
  residual activity: 109%
WEE1 (human)
  residual activity: 70.8%
CSNK2A1 (human)
  residual activity: 99.3%
CAMK1D (human)
  residual activity: 103%
MAPK3 (human)
  residual activity: 106%
PTK6 (human)
  residual activity: 85.6%
PHKG1 (human)
  residual activity: 81.1%
PKN2 (human)
  residual activity: 98%
CDK5 CDK5R1 p35 (human)
  residual activity: 0.133%
CDC42BPA (human)
  residual activity: 99.4%
NTRK1 (human)
  residual activity: 45.4%
TSSK2 (human)
  residual activity: 102%
HIPK2 (human)
  residual activity: 94.3%
PRKD2 (human)
  residual activity: 103%
FGFR4 (human)
  residual activity: 93.4%
DAPK1 (human)
  residual activity: 95.3%
SRC (human)
  residual activity: 3.75%
NEK3 (human)
  residual activity: 100%
SGK3 (human)
  residual activity: 99.9%
VRK1 (human)
  residual activity: 85.8%
MAP2K1 (human)
  residual activity: 91.3%
PLK3 (human)
  residual activity: 62.8%
EPHA2 (human)
  residual activity: 67.5%
NEK2 (human)
  residual activity: 94.4%
MUSK (human)
  residual activity: 46%
WNK3 (human)
  residual activity: 76.9%
PASK (human)
  residual activity: 106%
PAK6 (human)
  residual activity: 57.3%
TGFBR2 (human)
  residual activity: 93.5%
ULK1 (human)
  residual activity: 41.5%
SRPK2 (human)
  residual activity: 31%
TBK1 (human)
  residual activity: 86.6%
GRK7 (human)
  residual activity: 79.3%
DYRK4 (human)
  residual activity: 91.6%
SIK2 (human)
  residual activity: 104%
CAMKK2 (human)
  residual activity: 33.2%
PRKCE (human)
  residual activity: 105%
RPS6KA3 KD1 KD2 (human)
  residual activity: 54.1%
CAMK1G (human)
  residual activity: 105%
STK10 (human)
  residual activity: 55.6%

## O=C1Cc2c([nH]c3ccc(Br)cc23)-c2ccccc2N1
WEE1 (human)
  residual activity: 87.7%
CSNK2A1 (human)
  residual activity: 79.1%
CAMK1D (human)
  residual activity: 112%
MAPK3 (human)
  residual activity: 100%
PTK6 (human)
  residual activity: 87.7%
PHKG1 (human)
  residual activity: 49.7%
PKN2 (human)
  residual activity: 96.8%
CDK5 CDK5R1 p35 (human)
  residual activity: 70.8%
CDC42BPA (human)
  residual activity: 99%
TSSK2 (human)
  residual activity: 99.3%
HIPK2 (human)
  residual activity: 107%
PRKD2 (human)
  residual activity: 100%
FGFR4 (human)
  residual activity: 113%
DAPK1 (human)
  residual activity: 101%
SRC (human)
  residual activity: 71.4%
NEK3 (human)
  residual activity: 96.2%
SGK3 (human)
  residual activity: 107%
VRK1 (human)
  residual activity: 87.3%
LYN (human)
  residual activity: 67.2% and 75.4%
MAP2K1 (human)
  residual activity: 84.3%
PLK3 (human)
  residual activity: 96%
EPHA2 (human)
  residual activity: 98.3%
NEK2 (human)
  residual activity: 87.1%
MUSK (human)
  residual activity: 87.6%
WNK3 (human)
  residual activity: 95.5%
PASK (human)
  residual activity: 98%
PAK6 (human)
  residual activity: 97.8%
TGFBR2 (human)
  residual activity: 74.2%
ULK1 (human)
  residual activity: 93.8%
SRPK2 (human)
  residual activity: 98.9%
TBK1 (human)
  residual activity: 93%
GRK7 (human)
  residual activity: 100%
DYRK4 (human)
  residual activity: 97.2%
SIK2 (human)
  residual activity: 63.5%
CAMKK2 (human)
  residual activity: 77.8%
PRKCE (human)
  residual activity: 96.9%
CAMK1G (human)
  residual activity: 97.4%
STK10 (human)
  residual activity: 89.8%

## Nc1nccc(-c2c(-c3ccc(F)cc3)ncn2C2CCNCC2)n1
MET (human)
  residual activity: 104%
WEE1 (human)
  residual activity: 106%
CSNK2A1 (human)
  residual activity: 94.7%
CAMK1D (human)
  residual activity: 103%
MAPK3 (human)
  residual activity: 100%
PTK6 (human)
  residual activity: 73.4%
PHKG1 (human)
  residual activity: 98.3%
PKN2 (human)
  residual activity: 97.1%
CDK5 CDK5R1 p35 (human)
  residual activity: 102%
CDC42BPA (human)
  residual activity: 101%
NTRK1 (human)
  residual activity: 100%
TSSK2 (human)
  residual activity: 100%
HIPK2 (human)
  residual activity: 106%
PRKD2 (human)
  residual activity: 50.4%
FGFR4 (human)
  residual activity: 85.7%
DAPK1 (human)
  residual activity: 88.2%
SRC (human)
  residual activity: 94.2%
NEK3 (human)
  residual activity: 99%
SGK3 (human)
  residual activity: 97.5%
VRK1 (human)
  residual activity: 83.4%
LYN (human)
  residual activity: 87.5% and 97.5%
MAP2K1 (human)
  residual activity: 98.2%
PLK3 (human)
  residual activity: 97.8%
EPHA2 (human)
  residual activity: 102%
NEK2 (human)
  residual activity: 103%
MUSK (human)
  residual activity: 86.9%
WNK3 (human)
  residual activity: 95.3%
PASK (human)
  residual activity: 98.5%
PAK6 (human)
  residual activity: 111%
TGFBR2 (human)
  residual activity: 119%
ULK1 (human)
  residual activity: 95.3%
SRPK2 (human)
  residual activity: 96.4%
TBK1 (human)
  residual activity: 102%
GRK7 (human)
  residual activity: 106%
DYRK4 (human)
  residual activity: 99.3%
SIK2 (human)
  residual activity: 64.7%
CAMKK2 (human)
  residual activity: 110%
PRKCE (human)
  residual activity: 105%
RPS6KA3 KD1 KD2 (human)
  residual activity: 92.2%
CAMK1G (human)
  residual activity: 99.3%
STK10 (human)
  residual activity: 90.3%

## COc1ccc(CNC(=O)Nc2ncc([N+](=O)[O-])s2)cc1
MET (human)
  residual activity: 85.5%
WEE1 (human)
  residual activity: 95.2%
CSNK2A1 (human)
  residual activity: 94.2%
CAMK1D (human)
  residual activity: 112%
MAPK3 (human)
  residual activity: 103%
PTK6 (human)
  residual activity: 99.6%
PHKG1 (human)
  residual activity: 101%
PKN2 (human)
  residual activity: 101%
CDK5 CDK5R1 p35 (human)
  residual activity: 96.4%
CDC42BPA (human)
  residual activity: 93.7%
TSSK2 (human)
  residual activity: 105%
HIPK2 (human)
  residual activity: 103%
PRKD2 (human)
  residual activity: 97.3%
FGFR4 (human)
  residual activity: 98.9%
DAPK1 (human)
  residual activity: 105%
SRC (human)
  residual activity: 101%
NEK3 (human)
  residual activity: 78.6%
SGK3 (human)
  residual activity: 96.9%
VRK1 (human)
  residual activity: 95%
LYN (human)
  residual activity: 91.4% and 97.7%
MAP2K1 (human)
  residual activity: 101%
PLK3 (human)
  residual activity: 101%
EPHA2 (human)
  residual activity: 100%
NEK2 (human)
  residual activity: 99.1%
MUSK (human)
  residual activity: 115%
WNK3 (human)
  residual activity: 101%
PASK (human)
  residual activity: 106%
PAK6 (human)
  residual activity: 106%
TGFBR2 (human)
  residual activity: 117%
ULK1 (human)
  residual activity: 97.7%
SRPK2 (human)
  residual activity: 99.6%
TBK1 (human)
  residual activity: 104%
GRK7 (human)
  residual activity: 103%
DYRK4 (human)
  residual activity: 97.7%
SIK2 (human)
  residual activity: 89.4%
CAMKK2 (human)
  residual activity: 92.7%
PRKCE (human)
  residual activity: 92.4%
CAMK1G (human)
  residual activity: 99.6%
STK10 (human)
  residual activity: 94.3%

## CCn1cnc2c(Nc3cccc(Cl)c3)nc(N[C@@H]3CCCC[C@@H]3N)nc21
MET (human)
  residual activity: 102%
WEE1 (human)
  residual activity: 110%
CSNK2A1 (human)
  residual activity: 84.2%
CAMK1D (human)
  residual activity: 96.7%
MAPK3 (human)
  residual activity: 108%
PTK6 (human)
  residual activity: 82.1%
PHKG1 (human)
  residual activity: 62.8%
PKN2 (human)
  residual activity: 90.3%
CDK5 CDK5R1 p35 (human)
  residual activity: 13.2%
CDC42BPA (human)
  residual activity: 93.4%
NTRK1 (human)
  residual activity: 92.9%
TSSK2 (human)
  residual activity: 109%
HIPK2 (human)
  residual activity: 94%
FGFR4 (human)
  residual activity: 97.5%
DAPK1 (human)
  residual activity: 79.1%
SRC (human)
  residual activity: 54.7%
NEK3 (human)
  residual activity: 100%
SGK3 (human)
  residual activity: 94.3%
VRK1 (human)
  residual activity: 103%
MAP2K1 (human)
  residual activity: 92.2%
PLK3 (human)
  residual activity: 90.1%
EPHA2 (human)
  residual activity: 86.7%
NEK2 (human)
  residual activity: 100%
MUSK (human)
  residual activity: 79.8%
WNK3 (human)
  residual activity: 92%
PASK (human)
  residual activity: 88%
PAK6 (human)
  residual activity: 96.7%
TGFBR2 (human)
  residual activity: 91.2%
ULK1 (human)
  residual activity: 74.5%
SRPK2 (human)
  residual activity: 80.7%
TBK1 (human)
  residual activity: 92.8%
GRK7 (human)
  residual activity: 97.9%
DYRK4 (human)
  residual activity: 95.1%
SIK2 (human)
  residual activity: 89.1%
MAPK12 (human)
  residual activity: 96.6%
CAMKK2 (human)
  residual activity: 86.1%
PRKCE (human)
  residual activity: 90.6%
RPS6KA3 KD1 KD2 (human)
  residual activity: 64.1%
CAMK1G (human)
  residual activity: 94.1%
STK10 (human)
  residual activity: 75.1%
